Reference: ChEMBL document CHEMBL1121451, “Neuroleptic activity in 5-aryltetrahydro-gamma-carbolines” (J Med Chem, 1980)

Key:
Rattus norvegicus [1] = assay: Tested for neuroleptic activity by measuring antagonism of d-amphetamine sulfate at intraperitoneal dosage of 5 mg/kg, after 5 hours in rat; format: functional; conditions: ip
Rattus norvegicus [2] = assay: Tested for neuroleptic activity by measuring antagonism of d-amphetamine sulfate at intraperitoneal dosage of 5 mg/kg, after 1 hour in rat; Range is 3.2-10; format: functional; conditions: ip
Rattus norvegicus [3] = assay: Tested for neuroleptic activity by measuring antagonism of d-amphetamine sulfate at intraperitoneal dosage of 5 mg/kg, after 24 hours in rat; format: functional; conditions: ip
Rattus norvegicus [4] = assay: Tested for neuroleptic activity by measuring antagonism of d-amphetamine sulfate at intraperitoneal dosage of 5 mg/kg, after 1 hour in rat; Range is 0.32-1.0; format: functional; conditions: ip
Rattus norvegicus [5] = assay: Tested for neuroleptic activity by measuring antagonism of d-amphetamine sulfate at intraperitoneal dosage of 5 mg/kg, after 5 hours in rat; Range is 0.32-1.0; format: functional; conditions: ip
Rattus norvegicus [6] = assay: Tested for neuroleptic activity by measuring antagonism of d-amphetamine sulfate at intraperitoneal dosage of 5 mg/kg, after 1 hour in rat; Range is 1.0-3.2; format: functional; conditions: ip
Rattus norvegicus [7] = assay: Tested for neuroleptic activity by measuring antagonism of d-amphetamine sulfate at intraperitoneal dosage of 5 mg/kg, after 5 hours in rat; Range is 1.0-3.2; format: functional; conditions: ip
Rattus norvegicus [8] = assay: Tested for neuroleptic activity by measuring antagonism of d-amphetamine sulfate at intraperitoneal dosage of 5 mg/kg, after 24 hours in rat; Range is 1.0-3.2; format: functional; conditions: ip
Rattus norvegicus [9] = assay: Tested for neuroleptic activity by measuring antagonism of d-amphetamine sulfate at intraperitoneal dosage of 5 mg/kg, after 1 hour in rat; Range is 0.1-0.32; format: functional; conditions: ip
Rattus norvegicus [10] = assay: Tested for neuroleptic activity by measuring antagonism of d-amphetamine sulfate at intraperitoneal dosage of 5 mg/kg, after 5 hours in rat; Range is 3.2-10; format: functional; conditions: ip
Rattus norvegicus [11] = assay: Tested for neuroleptic activity by measuring antagonism of d-amphetamine sulfate at intraperitoneal dosage of 5 mg/kg, after 1 hour in rat; Range is 10-32; format: functional; conditions: ip
Rattus norvegicus [12] = assay: Tested for neuroleptic activity by measuring antagonism of d-amphetamine sulfate at intraperitoneal dosage of 5 mg/kg, after 5 hours in rat; Range is 10-32; format: functional; conditions: ip
Rattus norvegicus [13] = species: Rattus norvegicus; assay: Inhibition of amphetamine induced stereotypy in rats; pretreated 1 hr before amphetamine.; format: functional
Rattus norvegicus [14] = assay: Tested for neuroleptic activity by measuring antagonism of d-amphetamine sulfate at intraperitoneal dosage of 5 mg/kg, after 24 hours in rat; Range is 3.2-10; format: functional; conditions: ip
Rattus norvegicus [15] = assay: Tested for neuroleptic activity by measuring antagonism of d-amphetamine sulfate at intraperitoneal dosage of 5 mg/kg, after 1 hour in rat; Range is 32-56; format: functional; conditions: ip
Rattus norvegicus [16] = assay: Tested for neuroleptic activity by measuring antagonism of d-amphetamine sulfate at intraperitoneal dosage of 5 mg/kg, after 24 hours in rat; Range is 1.0-32; format: functional; conditions: ip
Canis familiaris = assay: The ability of compound to prevent the emesis induced by apomorphine (0.1 mg/kg, iv) in dogs at the specified dosage of 2.0 mg/kg (1 N saline); format: functional, Canis lupus familiaris

`Cl.Fc1ccc(-n2c3c(c4cc(F)ccc42)CN(Cc2ccccc2)CC3)cc1` gave an ED50 (Rattus norvegicus [1]) greater than 10 mg/kg, an ED50 (Rattus norvegicus [2]) of 3.2 mg/kg and an ED50 (Rattus norvegicus [3]) greater than 10 mg/kg.
In the case of `CN1CCN(CC/C=C2/c3ccccc3Sc3ccc(S(=O)(=O)N(C)C)cc32)CC1` [THIOTHIXENE], the ED50 (Rattus norvegicus [4]) is reported as 0.32 mg/kg, the ED50 (Rattus norvegicus [5]) is reported as 0.32 mg/kg and the ED50 (Rattus norvegicus [3]) is reported as greater than 17.8 mg/kg.
`Cl.O=C(CCCN1CCc2c(c3cc(F)ccc3n2-c2ccc(F)cc2)C1)c1ccc(F)cc1` showed an ED50 (Rattus norvegicus [6]) of 1 mg/kg, an ED50 (Rattus norvegicus [7]) of 1 mg/kg and an ED50 (Rattus norvegicus [8]) of 1 mg/kg.
With `Cl.OC(CCCN1CCc2c(c3cc(F)ccc3n2-c2ccc(F)cc2)C1)c1ccc(Cl)cc1` (stereo not given) the ED50 (Rattus norvegicus [6]) was 1 mg/kg, the ED50 (Rattus norvegicus [7]) was 1 mg/kg and the ED50 (Rattus norvegicus [3]) was greater than 3.2 mg/kg.
Compound `Cl.OC(CCCCN1CCc2c(c3cc(F)ccc3n2-c2ccc(F)cc2)C1)c1ccc(F)cc1` (stereo not given) has an ED50 (Rattus norvegicus [6]) of 1 mg/kg, an ED50 (Rattus norvegicus [7]) of 1 mg/kg and an ED50 (Rattus norvegicus [3]) greater than 3.2 mg/kg.
With `Cc1ccc(C(O)CCCN2CCc3c(c4cc(F)ccc4n3-c3ccc(F)cc3)C2)cc1.Cl` (stereo not given) the ED50 (Rattus norvegicus [9]) was 0.1 mg/kg, the ED50 (Rattus norvegicus [7]) was 1 mg/kg and the ED50 (Rattus norvegicus [3]) was greater than 10 mg/kg.
`Cl.O=C(CCCN1CCc2c(c3cc(F)ccc3n2-c2ccc(F)cc2)C1)c1ccc(Cl)cc1` gave an ED50 (Rattus norvegicus [2]) of 3.2 mg/kg and an ED50 (Rattus norvegicus [10]) of 3.2 mg/kg.
`Cn1c2c(c3cc(F)ccc31)CN(CCCC(=O)c1ccc(F)cc1)CC2` showed an ED50 (Rattus norvegicus [11]) of 10 mg/kg and an ED50 (Rattus norvegicus [1]) greater than 32 mg/kg.
`Cl.OC(CCCN1CCc2c(c3cc(F)ccc3n2-c2ccc(C(F)(F)F)cc2)C1)c1ccc(F)cc1` (stereo not given) showed an ED50 (Rattus norvegicus [11]) of 10 mg/kg and an ED50 (Rattus norvegicus [12]) of 10 mg/kg.
`Cl.Fc1ccc(-n2c3c(c4cc(F)ccc42)CN(CCc2ccccc2)CC3)cc1` showed an ED50 (Rattus norvegicus [11]) of 10 mg/kg and an ED50 (Rattus norvegicus [1]) greater than 32 mg/kg.
Work on `CCCN1CCc2c(c3cc(F)ccc3n2-c2ccc(F)cc2)C1.Cl` yielded an ED50 (Rattus norvegicus [1]) greater than 10 mg/kg and an ED50 (Rattus norvegicus [2]) of 3.2 mg/kg.
For `Cl.OC(CCCN1CCc2c(c3cc(F)ccc3n2-c2ccc(F)cc2)C1)c1ccc(Cl)c(C(F)(F)F)c1` (stereo not given), the ED50 (Rattus norvegicus [13]) was greater than 32 mg/kg, the ED50 (Rattus norvegicus [1]) was greater than 32 mg/kg and the ED50 (Rattus norvegicus [3]) was greater than 32 mg/kg.
Compound `Cl.Fc1ccc(CCCCN2CCc3c(c4cc(F)ccc4n3-c3ccc(F)cc3)C2)cc1` has an ED50 (Rattus norvegicus [4]) of 0.32 mg/kg, an ED50 (Rattus norvegicus [5]) of 0.32 mg/kg and an ED50 (Rattus norvegicus [14]) of 3.2 mg/kg.
With `OC(CCCN1CCc2c(c3cc(F)ccc3n2-c2ccc(F)cc2)C1)c1cccs1` (stereo not given) the ED50 (Rattus norvegicus [11]) was 10 mg/kg and the ED50 (Rattus norvegicus [1]) was greater than 32 mg/kg.
With `CN1CCc2c(c3cc(F)ccc3n2-c2ccccc2)C1.Cl` the ED50 (Rattus norvegicus [12]) was 10 mg/kg, the ED50 (Rattus norvegicus [2]) was 3.2 mg/kg and the ED50 (Rattus norvegicus [3]) was greater than 32 mg/kg.
Work on `OC(CCCN1CCc2[nH]c3ccc(F)cc3c2C1)c1ccc(F)cc1` (stereo not given) yielded an ED50 (Rattus norvegicus [1]) greater than 10 mg/kg, an ED50 (Rattus norvegicus [2]) of 3.2 mg/kg and an ED50 (Rattus norvegicus [3]) greater than 10 mg/kg.
In the case of `CN1CCc2c(c3cc(Br)ccc3n2-c2ccccc2)C1.Cl`, the ED50 (Rattus norvegicus [2]) is reported as 3.2 mg/kg.
Compound `CN1CCc2[nH]c3ccc(Cl)cc3c2C1` has an ED50 (Rattus norvegicus [15]) of 32 mg/kg.
For `Cl.Fc1ccc(C(CCCN2CCc3c(c4cc(F)ccc4n3-c3ccc(F)cc3)C2)c2ccc(F)cc2)cc1`, the ED50 (Rattus norvegicus [13]) was greater than 32 mg/kg, the ED50 (Rattus norvegicus [1]) was greater than 32 mg/kg and the ED50 (Rattus norvegicus [3]) was greater than 32 mg/kg.
`OC(CCCN1CCc2c(c3cc(F)ccc3n2-c2ccc(Cl)cc2)C1)c1ccc(F)cc1` (stereo not given) was tested, and the ED50 (Rattus norvegicus [13]) was greater than 32 mg/kg, the ED50 (Rattus norvegicus [1]) was greater than 32 mg/kg and the ED50 (Rattus norvegicus [16]) was 1 mg/kg.
With `Cl.OC(CCCN1CCc2c(c3cc(F)ccc3n2-c2ccc(F)cc2)C1)c1cccc(C(F)(F)F)c1` (stereo not given) the ED50 (Rattus norvegicus [13]) was greater than 10 mg/kg and the ED50 (Rattus norvegicus [1]) was greater than 10 mg/kg.
For `Cl.O=C(CCCCN1CCc2c(c3cc(F)ccc3n2-c2ccc(F)cc2)C1)c1ccc(F)cc1`, the ED50 (Rattus norvegicus [13]) was greater than 32 mg/kg, the ED50 (Rattus norvegicus [1]) was greater than 32 mg/kg and the ED50 (Rattus norvegicus [3]) was greater than 32 mg/kg.
Work on `CN1CCc2c(c3cc(F)ccc3n2-c2ccc(F)cc2)C1.Cl` yielded an ED50 (Rattus norvegicus [6]) of 1 mg/kg, an ED50 (Rattus norvegicus [3]) greater than 10 mg/kg and an ED50 (Rattus norvegicus [10]) of 3.2 mg/kg.
With `COc1ccc(C(O)CCCN2CCc3c(c4cc(F)ccc4n3-c3ccc(F)cc3)C2)cc1.Cl` (stereo not given) the ED50 (Rattus norvegicus [6]) was 1 mg/kg, the ED50 (Rattus norvegicus [7]) was 1 mg/kg and the ED50 (Rattus norvegicus [3]) was greater than 3.2 mg/kg.
`Cc1ccc2c(c1)c1c(n2-c2ccccc2)CCN(C)C1` showed an ED50 (Rattus norvegicus [11]) of 10 mg/kg, an ED50 (Rattus norvegicus [1]) greater than 32 mg/kg and an ED50 (Rattus norvegicus [3]) greater than 32 mg/kg.
`Cl.OC(CCCN1CCc2c(c3cc(F)ccc3n2-c2cccc(F)c2)C1)c1ccc(F)cc1` (stereo not given) gave an ED50 (Rattus norvegicus [1]) greater than 10 mg/kg and an ED50 (Rattus norvegicus [2]) of 3.2 mg/kg.
Work on `CCN1CCc2c(c3cc(F)ccc3n2-c2ccc(F)cc2)C1.Cl` yielded an ED50 (Rattus norvegicus [1]) greater than 10 mg/kg, an ED50 (Rattus norvegicus [2]) of 3.2 mg/kg and an ED50 (Rattus norvegicus [3]) greater than 10 mg/kg.
`CN1CCc2c(c3ccccc3n2-c2ccccc2)C1.Cl` gave an ED50 (Rattus norvegicus [11]) of 10 mg/kg and an ED50 (Rattus norvegicus [3]) greater than 32 mg/kg.
`CCCCCCCCCC(=O)OC(CCCN1CCc2c(c3cc(F)ccc3n2-c2ccc(F)cc2)C1)c1ccc(F)cc1.Cl` (stereo not given) gave a Protection (Canis familiaris) of 0 days.
In the case of `CC(C)(C)CCN1CCc2c(c3cc(F)ccc3n2-c2ccc(F)cc2)C1.Cl`, the ED50 (Rattus norvegicus [13]) is reported as greater than 10 mg/kg, the ED50 (Rattus norvegicus [1]) is reported as greater than 10 mg/kg and the ED50 (Rattus norvegicus [3]) is reported as greater than 10 mg/kg.
